Assay: xn = mol fraction of the nth substance listed

BrC(Br)Br + C=Cc1ccccc1
viscosity [mPa·s], 101.33 kPa
Conditions	x2 = 0.1005	x2 = 0.2006	x2 = 0.2981	x2 = 0.3985	x2 = 0.506	x2 = 0.6032	x2 = 0.7008	x2 = 0.7712	x2 = 0.8948
298.15 K	1.834	1.697	1.562	1.426	1.284	1.163	1.054	0.9849	0.8704
303.15 K	1.714	1.586	1.462	1.332	1.198	1.084	0.9817	0.9179	0.8129
308.15 K	1.603	1.481	1.361	1.24	1.117	1.01	0.9176	0.8595	0.762

CCCCCCCCO + Cc1ccccc1
viscosity [mPa·s], 101 kPa
Conditions	298.15 K	308.15 K
x2 = 0.0495	6.43	4.918
x2 = 0.1104	5.45	4.28
x2 = 0.1513	4.841	3.853
x2 = 0.1999	4.2	3.402
x2 = 0.2517	3.646	3.009
x2 = 0.2997	3.252	2.674
x2 = 0.356	2.717	2.317
x2 = 0.3998	2.395	2.048
x2 = 0.4506	2.092	1.825
x2 = 0.5001	1.84	1.637
x2 = 0.5513	1.598	1.42
x2 = 0.6014	1.404	1.272
x2 = 0.6495	1.244	1.119
x2 = 0.6997	1.098	1.015
x2 = 0.7569	0.96	0.87
x2 = 0.8012	0.859	0.779
x2 = 0.8527	0.769	0.699
x2 = 0.9	0.674	0.61
x2 = 0.954	0.612	0.554

CCCCCCCCO + CCCCCCO
viscosity [mPa·s], 101.8 kPa
Conditions	x2 = 0.1207	x2 = 0.3506	x2 = 0.5615	x2 = 0.7463	x2 = 0.9227
298.15 K	7.227	6.442	5.793	5.234	4.736
308.15 K	5.209	4.695	4.259	3.879	3.53
318.15 K	3.833	3.481	3.18	2.914	2.671

CC12CC3CC(C1)CC(C)(C3)C2 + CCCCCCCCC
viscosity [mPa·s], 100 kPa
Conditions	x1 = 0.1004	x1 = 0.2014	x1 = 0.3	x1 = 0.4003	x1 = 0.5004	x1 = 0.6001	x1 = 0.7005	x1 = 0.7994	x1 = 0.8997
293.15 K	0.802	0.912	1.033	1.203	1.39	1.647	1.986	2.44	2.984
298.15 K	0.748	0.848	0.958	1.111	1.279	1.501	1.8	2.183	2.68
303.15 K	0.699	0.791	0.891	1.028	1.182	1.377	1.635	1.992	2.419
308.15 K	0.656	0.74	0.831	0.956	1.093	1.267	1.509	1.816	2.196
313.15 K	0.617	0.694	0.777	0.891	1.018	1.18	1.399	1.661	2
318.15 K	0.582	0.652	0.728	0.833	0.947	1.09	1.282	1.527	1.829
323.15 K	0.55	0.615	0.685	0.78	0.885	1.018	1.193	1.411	1.68

C=Cc1ccccc1 + CO
viscosity [mPa·s], 101.33 kPa
Conditions	x1 = 0.1005	x1 = 0.192	x1 = 0.3007	x1 = 0.4018	x1 = 0.4981	x1 = 0.5994	x1 = 0.7011	x1 = 0.8049	x1 = 0.8981
298.15 K	0.591	0.623	0.65	0.669	0.679	0.686	0.692	0.701	0.706
303.15 K	0.55	0.583	0.608	0.618	0.634	0.642	0.646	0.655	0.661
308.15 K	0.515	0.543	0.569	0.587	0.594	0.598	0.602	0.61	0.617

CC(C)(C)N + COC(C)=O
303.15 K, 101 kPa
Conditions	viscosity [mPa·s]
x1 = 0.1513	0.3868
x1 = 0.247	0.4006
x1 = 0.3175	0.4155
x1 = 0.4152	0.4301
x1 = 0.5361	0.4379
x1 = 0.7023	0.4413
x1 = 0.771	0.4432
x1 = 0.8641	0.4438

[Cl-].[Rb+] + O
310.15 K, 101 kPa
Conditions	viscosity [mPa·s]
x1 = 0.000184	0.6947
x1 = 0.000842	0.6943
x1 = 0.002695	0.6937
x1 = 0.003302	0.6937
x1 = 0.003679	0.6938
x1 = 0.005197	0.6944
x1 = 0.005988	0.695

BrC(Br)Br + Nc1ccccc1
298.15 K, 101 kPa
Conditions	viscosity [mPa·s]
x1 = 0.1402	3.373
x1 = 0.2067	3.235
x1 = 0.3151	3.026
x1 = 0.4133	2.856
x1 = 0.5137	2.657
x1 = 0.614	2.486
x1 = 0.701	2.349
x1 = 0.808	2.196

CCN(CC)CCO.Cl + OCC(O)CO
101 kPa, x1 = 0.333
Conditions	viscosity [mPa·s]
296.97 K	433.4
298.15 K	513.1
302.02 K	339.9
303.15 K	351.5
306.82 K	263.5
308.15 K	251.3
312.13 K	195.5
313.15 K	182.9
317.31 K	153
318.15 K	138
322.61 K	110.5
323.15 K	104.2

CC(=O)c1ccc(Cl)cc1 + CCCCCCO
303.15 K, 101 kPa
Conditions	viscosity [mPa·s]
x1 = 0.0521	3.667
x1 = 0.1009	3.442
x1 = 0.1668	3.212
x1 = 0.2325	2.982
x1 = 0.3002	2.791
x1 = 0.4028	2.603
x1 = 0.5001	2.511
x1 = 0.5708	2.462
x1 = 0.641	2.437
x1 = 0.6998	2.428
x1 = 0.7655	2.448
x1 = 0.8376	2.502
x1 = 0.9007	2.589
x1 = 0.9513	2.717
